From patent US5698590A, “Prostaglandin derivatives” (Ono Pharmaceutical Co., Ltd., priority 1995, dated 1997)

Tests used:
[1] = solubility of comparative compound; assay type: physicochemical; conditions: administration without solubilizer was impossible
[2] = tested on: cutaneous blood flow of the dorsum pedis; experiment: blood flow increasing effect in anesthetized rats (laser-Doppler flowmetry, AUC); assay type: in vivo, Male rats; set-up: Blood flow increasing effect: Total AUC: unit not given here; conditions: for Blood flow increasing effect: Total AUC / Blood flow increasing effect: Dose (A) required to obtain AUC = 771: rat; for Blood flow increasing effect: Total AUC: injection via jugular vein; for Blood flow increasing effect: Dose (A) required to obtain AUC = 771: AUC 771 = effect of PGE1 lipid emulsion 5 μg/kg i.v.; for Blood flow increasing effect: Relative activity (X): relative to comparative compound = 1, from Dose (A)
Method: (§1) Male rats weighing 200-350 g were anesthetized with urethane (25% urethane, 6 ml/kg, s.c.). The carotid artery and jugular vein were cannulated with polyethylene tubes for measurement of blood pressure and for drug injection, respectively. Blood pressure was obtained with a disposable pressure transducer kit (Spectramed, Ltd) and recorded with a recticoder (model RJG-4128, Nihon kohden, Ltd). Also, blood flow was monitored as cutaneous blood flow of the dorsum pedis using an attachment-type laser-Doppler flowmeter (model ALF21, Advance, Ltd). Measurements were taken until the values recovered to the level observed before injection of drugs. Injection time was about 10 seconds. The hypotensive effect and blood flow increasing effect were calculated as the maximum hypotensive activity (mmHg) and the area under the curve (AUC) after injection of drugs, respectively.
(§2) The results were represented by the dose required to obtain an effective increase in blood flow (main effect), and by the hypotensive effect (side effect) at the same dose.
(§3) The compounds of the present invention were administered in the form of liposome formulations (as prepared in Example 3 below). […] The solubility of this comparative compound was very low; thus, administration without solubilizer was impossible.
The effectiveness of increasing blood flow was determined by the following method.
(§4) The dry lipid film was dispersed into a 10% maltose solution (3 ml) by using a vortex mixer (type S-100, Taiyokagaku Inc.) and an aqueous suspension with a drug concentration of 1, 3, 10, or 30 μg/ml was obtained. The obtained multilamellar liposome solutions (3 ml) were transferred into plastic tubes and then sonicated with a probe sonicator (type: SONIFIER cell disruptor 200, Branson) at the condition of 50% pulsed operation for 15 minutes. The sonicated solutions were passed through a membrane filter with a pore diameter of 0.2 μm to remove titanium particles and liposome formulations with a mean diameter of 40-70 nm were formed.

blood pressure = experiment: hypotensive effect in anesthetized rats (maximum hypotensive activity); assay type: in vivo, Male rats; conditions: for Hypotensive effect: Maximum hypotension on dose (A): at dose (A) required to obtain AUC = 771; for Hypotensive effect: Maximum hypotension on dose (A) / Hypotensive effect: Maximum hypotension: rat; for Hypotensive effect: Maximum hypotension: injection via jugular vein; for Hypotensive effect: Relative activity (X): relative to comparative compound = 1, at dose (A)
Method: as §1, §2, §3, §4

Compound | solubility [1] | Blood flow increasing effect: Total AUC ([2]; dose 3 μg/kg) | Blood flow increasing effect: Total AUC ([2]; dose 10 μg/kg) | Blood flow increasing effect: Total AUC ([2]; dose 30 μg/kg) | Blood flow increasing effect: Dose (A) required to obtain AUC = 771 [2] | Blood flow increasing effect: Relative activity (X) [2] | Hypotensive effect: Maximum hypotension on dose (A) (blood pressure) | Hypotensive effect: Maximum hypotension (blood pressure; dose 3 μg/kg) | Hypotensive effect: Maximum hypotension (blood pressure; dose 10 μg/kg) | Hypotensive effect: Maximum hypotension (blood pressure; dose 30 μg/kg) | Hypotensive effect: Relative activity (X) (blood pressure) | Blood flow increasing effect: Total AUC ([2]; dose 1 μg/kg) | Hypotensive effect: Maximum hypotension (blood pressure; dose 1 μg/kg)
CCCCCCCCCCCCCCCC(=O)OCC(COC(=O)CCCCCCCCCCCCCCC)OC(=O)CCCCCC[C@H]1C(=O)C[C@@H](O)[C@@H]1/C=C/[C@@H](O)CCCCC [Comparative compound, PGE1 1,3-bis(palmitoyloxy)-2-propyl ester, reference compound] | very low | 350 | 710 | 830 | 23.6 µg/kg | 1 | 7.1 mmHg | 1 mmHg | 6 mmHg | 8 mmHg | 1 | – | –
CCCCCCCCCCCC(=O)OCC(COC(=O)CCCCCCCCCCC)OC(=O)CCCCCC[C@H]1C(=O)C[C@@H](O)[C@@H]1/C=C/[C@@H](O)CCCCC [Example 1, PGE1 1,3-bis (dodecanoyloxy)-2-propyl ester] | – | 483 | 2566 | – | 3.6 µg/kg | 6.6 | 2.2 mmHg | 1 mmHg | 9 mmHg | – | 0.31 | 116 | 0 mmHg
CCCCCC(=O)OCC(COC(=O)CCCCC)OC(=O)CCCCCC[C@H]1C(=O)C[C@@H](O)[C@@H]1/C=C/[C@@H](O)CCCCC [Example 2, PGE1 1,3-bis (hexanoyloxy)-2-propyl ester] | – | 1206 | 3919 | – | 2.2 µg/kg | 10.7 | 6.7 mmHg | 9 mmHg | 19 mmHg | – | 0.94 | 185 | 4 mmHg
